Experimental data from ChEMBL document CHEMBL1130537, “Asymmetric synthesis of the sulfoxide metabolite of ON-579 by the kagan protocol” (Bioorg Med Chem Lett, 1997).

Species: Oryctolagus cuniculus
Test: Inhibitory activity against U-46,619-induced rabbit platelet aggregation was determined
Format: functional

| IC50 | IC50 (Oryctolagus cuniculus) | Structure (SMILES) |
| --- | --- | --- |
| ≥ 1 µM |  | O=C(O)COc1c(F)cc([S+]([O-])CCNS(=O)(=O)c2ccc(Cl)cc2)cc1F (racemic; form 1) |
| 13.3 µM |  | O=C(O)COc1c(F)cc([S+]([O-])CCNS(=O)(=O)c2ccc(Cl)cc2)cc1F (stereo in doubt; (-/-)4b) |
|  | 0.34 µM | O=C(O)COc1c(F)cc(SCCNS(=O)(=O)c2ccc(Cl)cc2)cc1F |
| 18.9 µM |  | O=C(O)COc1c(F)cc([S+]([O-])CCNS(=O)(=O)c2ccc(Cl)cc2)cc1F (racemic; form 2) |
